{"source": "paper PMC8082450", "about": "“Protein Serine/Threonine Phosphatase Type 2C of Leishmania mexicana” (Frontiers in Cellular and Infection Microbiology, 2021)", "target": "T1, LmxPP2C (Leishmania mexicana, UniProt E9AXF3)", "T1 construct": "gene LMXM_25_0750", "T1 sequence (E9AXF3 1-406)": "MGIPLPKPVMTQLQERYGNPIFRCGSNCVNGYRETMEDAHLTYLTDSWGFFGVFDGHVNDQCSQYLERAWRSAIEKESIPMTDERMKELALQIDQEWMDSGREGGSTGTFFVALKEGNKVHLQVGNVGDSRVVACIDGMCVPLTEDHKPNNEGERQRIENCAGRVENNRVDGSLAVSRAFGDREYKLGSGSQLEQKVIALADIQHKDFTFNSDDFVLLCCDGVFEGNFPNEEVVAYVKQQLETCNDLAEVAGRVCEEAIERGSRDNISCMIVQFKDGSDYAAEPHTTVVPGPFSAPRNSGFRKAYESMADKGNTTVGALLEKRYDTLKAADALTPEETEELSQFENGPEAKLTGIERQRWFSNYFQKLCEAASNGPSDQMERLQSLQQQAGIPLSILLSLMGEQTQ", "test": "phosphatase inhibition assay, p-NPP hydrolysis at […] nm", "type": "biochemical", "data": [{"smiles": "C[n+]1cc2c3c(ccc2c2ccc4cc5c(cc4c21)OCO5)OCO3", "note": "[sanguinarine]", "values": [{"measurement": "inhibition at 20 µM", "value": 81, "unit": "%"}]}, {"smiles": "C=C1[C@@H](O)[C@@H]2O[C@]3(CC[C@H](/C=C/[C@@H](C)[C@@H]4CC(C)=C[C@@]5(O[C@H](C[C@@](C)(O)C(=O)O)CC[C@H]5O)O4)O3)CC[C@H]2O[C@@H]1[C@@H](O)C[C@H](C)[C@H]1O[C@@]2(CCCCO2)CC[C@H]1C", "note": "[okadaic acid]", "values": [{"measurement": "inhibition at 1 µM", "setting": "read-out: % inhibition at 1 μM", "value": 14, "unit": "%"}]}, {"smiles": "COC[C@@H]([C@H](O)[C@H](O)C(=O)NCC[C@H](C)c1nc(/C=C/C[C@@H]2O[C@]3(C[C@@H](O)[C@@H]2C)O[C@H]([C@H](C[C@H](O)[C@H](C)[C@H](O)[C@H](C)/C=C(C)/C(C)=C/C=C/C(C)=C\\C#N)OC)[C@H](OP(=O)(O)O)C3(C)C)co1)N(C)C", "note": "[calyculin]", "values": [{"measurement": "inhibition at 0.005 µM", "setting": "read-out: % inhibition at 5 nM", "value": 18, "unit": "%"}]}]}
